The results in this text go back to patent US9751887B2, “Imidazo[1,2-b]pyridazine derivatives as kinase inhibitors” (Daiichi Sankyo Company, Limited, priority 2012, dated 2017).

Broadly, the IC50 is the concentration that inhibits the measured activity by half.

SMILES strings stand for the structures. Structures can show the parent of a compound that is named as a salt.

Test [1] addresses T1, ROS1 (Homo sapiens, UniProt P08922).
T1 construct: purchased Carna Biosciences 08-163
Kind of test: ROS1 kinase inhibitory activity evaluation (mobility shift, EZ Reader II). The test is classed as biochemical. As to conditions: ROS1 25 pg/μL, FL-Peptide 22 substrate, three separate measurements. The protocol: Next, a substrate reaction solution was prepared. […] Then, the reaction stop solution was added thereto at a concentration of 40 μL/well. Substrate phosphorylation intensity was measured using EZ Reader II (Caliper Life Sciences).

Test [2] has as its target T1, ROS1. Kind of test: ROS1 autophosphorylation inhibitory activity evaluation (ADP-Glo). The test is classed as biochemical. As to conditions: 200 nM inactive ROS1, ATP 1 mM, 25° C. 1.5 hours, ADP generated, four separate measurements. As to the method:
Fifty mM HEPES (pH 7.5), 10 mM MgCl2, 0.01% Brij-58, and 2.5 mM DTT were mixed to prepare an enzymatic reaction solution. […] ATP (final concentration: 1 mM) was further added thereto at a concentration of 2.5 μL/well. The resulting plate was left standing at 25° C. for 1.5 hours to cause enzymatic reaction. After the completion of enzymatic reaction, ADP-Glo Reagent-1 (Promega, V9103) was added thereto at a concentration of 2.5 μL/well, and the plate was left standing at room temperature for 60 minutes. Then, ADP-Glo Reagent-2 (Promega) was added thereto at a concentration of 5 μL/well, and the plate was left standing at room temperature for 60 minutes. The amount of ADP generated by the autophosphorylation of ROS1 was measured using EnVision (PerkinElmer Japan). The amount of ADP generated in four separate measurements was defined as the autophosphorylation intensity of ROS1. IC50 values were calculated by curve fitting using GraphPad Prism version 4 (GraphPad software).

Test [3] relates to HCC78 cells having ROS1 fusion gene. As to the kind of experiment: HCC78 cell growth assay (CellTiter-Glo). As to conditions: Homo sapiens, HCC78, 72 h, 72 hours culture, 2% FBS medium, luminescence, four separate measurements; read-out: growth inhibitory effect on HCC78 cells having ROS1 fusion gene IC50. The format is cell-based. As to the method:
Each compound of the present invention was assayed for its cell growth inhibitory effect using HCC78 cells having ROS1 fusion gene.
The suspension was dispensed at a concentration of 100 μL/well to a 96-well culture plate for cell culture (SUMITOMO BAKELITE, Cat No MS-0096S) (hereinafter, referred to as an assay plate). […] In this context, the final concentration of DMSO was set to 0.4%. Then, the cells were cultured for 72 hours in a CO2 incubator.
CellTiter-Glo Luminescent Cell Viability Assay reagent (Promega, Cat No G7571) was dispensed at a concentration of 100 μL/well to the assay plate. The contents in each well were reacted at room temperature for 10 minutes while stirred using a plate mixer. […] The luminescence intensity of each well was measured using EnVision. The luminescence intensity of each well obtained in four separate measurements was defined as the number of cells. IC50 values were calculated by curve fitting using GraphPad Prism version 4.

T1 sequence (P08922 28-2347): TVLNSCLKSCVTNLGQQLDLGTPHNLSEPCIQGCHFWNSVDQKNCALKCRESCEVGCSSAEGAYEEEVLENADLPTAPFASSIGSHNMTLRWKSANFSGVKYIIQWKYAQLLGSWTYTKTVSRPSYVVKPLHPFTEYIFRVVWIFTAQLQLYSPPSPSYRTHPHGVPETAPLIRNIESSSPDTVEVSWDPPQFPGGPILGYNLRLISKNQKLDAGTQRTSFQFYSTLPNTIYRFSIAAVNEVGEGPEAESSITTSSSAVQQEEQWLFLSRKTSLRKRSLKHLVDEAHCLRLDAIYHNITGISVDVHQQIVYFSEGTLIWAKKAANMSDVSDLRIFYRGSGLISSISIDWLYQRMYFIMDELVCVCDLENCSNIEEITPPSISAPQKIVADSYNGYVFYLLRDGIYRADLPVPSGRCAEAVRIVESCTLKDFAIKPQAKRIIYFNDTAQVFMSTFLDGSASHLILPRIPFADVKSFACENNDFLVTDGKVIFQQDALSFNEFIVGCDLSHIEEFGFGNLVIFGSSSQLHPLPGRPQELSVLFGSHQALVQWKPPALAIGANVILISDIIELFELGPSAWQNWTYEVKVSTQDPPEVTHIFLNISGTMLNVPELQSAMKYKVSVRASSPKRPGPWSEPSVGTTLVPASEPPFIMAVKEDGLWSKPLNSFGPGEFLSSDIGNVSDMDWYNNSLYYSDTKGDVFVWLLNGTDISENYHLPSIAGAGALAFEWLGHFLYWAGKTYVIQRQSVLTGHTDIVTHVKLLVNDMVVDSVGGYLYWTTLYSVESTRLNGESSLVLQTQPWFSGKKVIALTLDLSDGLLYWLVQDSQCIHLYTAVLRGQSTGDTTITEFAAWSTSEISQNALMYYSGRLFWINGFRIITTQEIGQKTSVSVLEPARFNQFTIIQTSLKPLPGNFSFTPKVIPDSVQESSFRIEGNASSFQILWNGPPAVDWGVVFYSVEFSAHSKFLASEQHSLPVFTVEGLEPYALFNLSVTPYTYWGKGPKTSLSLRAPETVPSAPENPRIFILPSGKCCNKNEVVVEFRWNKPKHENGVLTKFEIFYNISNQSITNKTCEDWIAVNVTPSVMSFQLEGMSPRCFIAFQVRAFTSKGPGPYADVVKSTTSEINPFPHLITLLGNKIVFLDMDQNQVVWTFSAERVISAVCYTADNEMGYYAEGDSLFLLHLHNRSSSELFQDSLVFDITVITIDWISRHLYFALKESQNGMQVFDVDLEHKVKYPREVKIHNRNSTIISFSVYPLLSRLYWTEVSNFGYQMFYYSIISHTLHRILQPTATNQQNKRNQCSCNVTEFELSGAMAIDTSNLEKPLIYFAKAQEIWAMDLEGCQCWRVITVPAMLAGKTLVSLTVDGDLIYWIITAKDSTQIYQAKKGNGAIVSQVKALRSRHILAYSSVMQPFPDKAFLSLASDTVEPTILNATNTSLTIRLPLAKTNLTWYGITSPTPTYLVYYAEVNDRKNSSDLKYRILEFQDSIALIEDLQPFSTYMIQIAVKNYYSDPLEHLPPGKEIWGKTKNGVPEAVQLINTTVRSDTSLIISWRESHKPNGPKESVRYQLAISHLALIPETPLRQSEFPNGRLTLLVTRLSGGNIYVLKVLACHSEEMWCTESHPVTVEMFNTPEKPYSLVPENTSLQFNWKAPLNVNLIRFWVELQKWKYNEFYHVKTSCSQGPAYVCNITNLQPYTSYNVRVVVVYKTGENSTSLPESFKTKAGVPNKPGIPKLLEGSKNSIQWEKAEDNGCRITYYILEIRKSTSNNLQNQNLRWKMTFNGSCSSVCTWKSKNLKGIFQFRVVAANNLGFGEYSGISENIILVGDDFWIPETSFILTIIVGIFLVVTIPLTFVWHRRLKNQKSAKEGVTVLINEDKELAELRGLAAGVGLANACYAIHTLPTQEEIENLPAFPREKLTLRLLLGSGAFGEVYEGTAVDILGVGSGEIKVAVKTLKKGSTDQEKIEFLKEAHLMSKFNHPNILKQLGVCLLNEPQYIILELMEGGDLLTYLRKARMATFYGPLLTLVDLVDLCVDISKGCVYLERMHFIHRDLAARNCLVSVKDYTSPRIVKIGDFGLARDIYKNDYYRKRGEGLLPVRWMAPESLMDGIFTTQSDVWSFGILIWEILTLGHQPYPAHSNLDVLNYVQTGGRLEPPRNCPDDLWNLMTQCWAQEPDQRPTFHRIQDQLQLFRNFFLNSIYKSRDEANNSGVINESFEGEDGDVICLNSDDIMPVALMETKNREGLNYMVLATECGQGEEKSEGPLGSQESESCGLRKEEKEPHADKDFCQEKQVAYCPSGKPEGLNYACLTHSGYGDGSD

Consider `Fc1cccc(COc2ccc3ncc(-c4ccc(OC[C@@H]5CCCN5)cc4)n3n2)c1` [Example 12, 6-[(3-Fluorophenyl)methoxy]-3-[4-[[(2S)-pyrrolidin-2-yl]methoxy]phenyl]imidazo[1,2-b]pyridazine], for which the IC50 was in the range of 1 to 10 nM on ROS1 [1], 20 to 100 nM at ROS1 [2] and 100 to 600 nM in test [3].
For `Fc1cccc(COc2ccc3ncc(-c4ccc(O[C@@H]5CCNC5)cc4)n3n2)c1` [Example 13, 6-[(3-Fluorophenyl)methoxy]-3-[4-[(3R)-pyrrolidin-3-yl]oxyphenyl]imidazo[1,2-b]pyridazine] the same measures were 1 to 10 nM, 100 to 150 nM and 100 to 600 nM.
Taken in the same sequence, the figures for `NCCOc1ccc(-c2cnc3ccc(OCc4cccc(F)c4)nn23)cc1` [Example 14, 2-[4-[6-[(3-Fluorophenyl)methoxy]imidazo[1,2-b]pyridazin-3-yl]phenoxy]ethanamine] were 1 to 10 nM, 20 to 100 nM and 100 to 600 nM.
Taken in the same sequence, the figures for `C[C@@H](Oc1ccc2ncc(-c3ccc(OC4CCNCC4)cc3)n2n1)c1cccc(F)c1` [Example 15, 6-[(1R)-1-(3-Fluorophenyl)ethoxy]-3-[4-(4-piperidyloxy)phenyl]imidazo[1,2-b]pyridazine] were 1 to 10 nM, 20 to 100 nM and 100 to 600 nM.
With `C[C@@H](Oc1ccc2ncc(-c3ccc(OCC4CCNCC4)cc3)n2n1)c1cccc(F)c1` [Example 17, 6-[(1R)-1-(3-Fluorophenyl)ethoxy]-3-[4-(4-piperidylmethoxy)phenyl]imidazo[1,2-b]pyridazine], the IC50 at ROS1 [1] is 1 to 10 nM; on ROS1 [2], 20 to 100 nM; in test [3], 100 to 600 nM.
For `C[C@@H](Oc1ccc2ncc(-c3ccc(OC[C@@H]4CCN4)cc3)n2n1)c1cccc(F)c1` [Example 18, 3-[4-[[(2S)-Azetidin-2-yl]methoxy]phenyl]-6-[(1R)-1-(3-fluorophenyl)ethoxy]imidazo[1,2-b]pyridazine hydrochloride], the IC50 was below 1 nM on ROS1 [1], 20 to 100 nM against ROS1 [2] and 20 to 100 nM in test [3].
Regarding `C[C@@H](Nc1ccc2ncc(-c3ccc(OC[C@@H]4CCCN4)cc3)n2n1)c1ccccc1` [Example 19, N-[(1R)-1-Phenylethyl]-3-[4-[[(2S)-pyrrolidin-2-yl]methoxy]phenyl]imidazo[1,2-b]pyridazin-6-amine], the half-inhibitory concentration (IC50) at ROS1 [1] was 1 to 10 nM; on ROS1 [2], below 20 nM; in test [3], 100 to 600 nM.
Taken in the same sequence, the figures for `C[C@@H](Nc1ccc2ncc(-c3ccc(SC[C@@H]4CCCN4)cc3)n2n1)c1ccccc1` [Example 20, N-[(1R)-1-Phenylethyl]-3-[4-[[(2S)-pyrrolidin-2-yl]methylsulfanyl]phenyl]imidazo[1,2-b]pyridazin-6-amine] were 1 to 10 nM, 20 to 100 nM and 100 to 600 nM.
For the compound `C[C@@H](Nc1ccc2ncc(-c3ccc(O[C@@H]4CCNC4)cc3)n2n1)c1cccc(F)c1` [Example 22, N-[(1R)-1-(3-Fluorophenyl)ethyl]-3-[4-[(3R)-pyrrolidin-3-yl]oxyphenyl]imidazo[1,2-b]pyridazin-6-amine], the IC50 is below 1 nM on ROS1 [1], below 20 nM on ROS1 [2] and 20 to 100 nM in test [3].
For `C[C@@H](Nc1ccc2ncc(-c3ccc(OC[C@@H]4CCNC4)cc3)n2n1)c1cccc(F)c1` [Example 23, N-[(1R)-1-(3-Fluorophenyl)ethyl]-3-[4-[[(3R)-pyrrolidin-3-yl]methoxy]phenyl]imidazo[1,2-b]pyridazin-6-amine] the same measures were below 1 nM, below 20 nM and 100 to 600 nM.
For `C[C@@H](Nc1ccc2ncc(-c3ccc(OC4CNC4)cc3)n2n1)c1cccc(F)c1` [Example 25, 3-[4-(Azetidin-3-yloxy)phenyl]-N-[(1R)-1-(3-fluorophenyl)ethyl]imidazo[1,2-b]pyridazin-6-amine] the same measures were 1 to 10 nM, below 20 nM and 20 to 100 nM.
For `C[C@@H](Nc1ccc2ncc(-c3ccc(OCCN)cc3)n2n1)c1cccc(F)c1` [Example 26, 3-[4-(2-Aminoethoxy)phenyl]-N-[(1R)-1-(3-fluorophenyl)ethyl]imidazo[1,2-b]pyridazin-6-amine] the same measures were below 1 nM, below 20 nM and below 20 nM.
Take `C[C@@H](Nc1ccc2ncc(-c3ccc(OCC4CNC4)cc3)n2n1)c1cccc(F)c1` [Example 27, 3-[4-(Azetidin-3-ylmethoxy)phenyl]-N-[(1R)-1-(3-fluorophenyl)ethyl]imidazo[1,2-b]pyridazin-6-amine]: the concentration for half-maximal inhibition (IC50) on ROS1 [1] is 1 to 10 nM; against ROS1 [2], below 20 nM; in test [3], 100 to 600 nM.
Taken in the same sequence, the figures for `C[C@@H](Nc1ccc2ncc(-c3ccc(OCCCN)cc3)n2n1)c1cccc(F)c1` [Example 28, 3-[4-(3-Aminopropoxy)phenyl]-N-[(1R)-1-(3-fluorophenyl)ethyl]imidazo[1,2-b]pyridazin-6-amine] were below 1 nM, below 20 nM and 20 to 100 nM.
For `CNCCCOc1ccc(-c2cnc3ccc(N[C@H](C)c4cccc(F)c4)nn23)cc1` [Example 31] the same measures were 1 to 10 nM, below 20 nM and 20 to 100 nM.
Consider `C[C@@H](Nc1ccc2ncc(-c3ccc(O[C@@H]4CCC[C@@H]4N)cc3)n2n1)c1cccc(F)c1` [Example 36, 3-[4-[(1R,2S)-2-Aminocyclopentoxy]phenyl]-N-[(1R)-1-(3-fluorophenyl)ethyl]imidazo[1,2-b]pyridazin-6-amine], for which the IC50 was below 1 nM on ROS1 [1], below 20 nM against ROS1 [2] and 100 to 600 nM in test [3].
Turning to `C[C@@H](Nc1ccc2ncc(-c3ccc(OCCNC4CC4)cc3)n2n1)c1cccc(F)c1` [Example 37, 3-[4-[2-(Cyclopropylamino)ethoxy]phenyl]-N-[(1R)-1-(3-fluorophenyl)ethyl]imidazo[1,2-b]pyridazin-6-amine], the IC50 on ROS1 [1] was below 1 nM; at ROS1 [2], 20 to 100 nM; in test [3] it was 20 to 100 nM.
Take `CNC(C)COc1ccc(-c2cnc3ccc(N[C@H](C)c4cccc(F)c4)nn23)cc1` (stereo partly drawn) [Example 38, N-[(1R)-1-(3-Fluorophenyl)ethyl]-3-[4-[2-(methylamino)propoxy]phenyl]imidazo[1,2-b]pyridazin-6-amine]: the figures for the IC50 (on ROS1 [1]; on ROS1 [2]; in test [3]) were below 1 nM, below 20 nM and below 20 nM, respectively.
`C[C@@H](Nc1ccc2ncc(-c3ccc(OCC4(N)CC4)cc3)n2n1)c1cccc(F)c1` [Example 39, 3-[4-[(1-Aminocyclopropyl)methoxy]phenyl]-N-[(1R)-1-(3-fluorophenyl)ethyl]imidazo[1,2-b]pyridazin-6-amine]: the results for the IC50 (at ROS1 [1]; against ROS1 [2]; in test [3]) were below 1 nM, below 20 nM and 20 to 100 nM, respectively.
For `C[C@@H](Nc1ccc2ncc(-c3ccc(O[C@H]4CCC[C@H]4N)cc3)n2n1)c1cccc(F)c1` [Example 40, 3-[4-[(1S,2R)-2-Aminocyclopentoxy]phenyl]-N-[(1R)-1-(3-fluorophenyl)ethyl]imidazo[1,2-b]pyridazin-6-amine] the same measures were below 1 nM, below 20 nM and below 20 nM.
Taken in the same sequence, the figures for `C[C@@H](Nc1ccc2ncc(-c3ccc(OCCNCCO)cc3)n2n1)c1cccc(F)c1` [Example 42, 2-[2-[4-[6-[[(1R)-1-(3-Fluorophenyl)ethyl]amino]imidazo[1,2-b]pyridazin-3-yl]phenoxy]ethylamino]ethanol] were below 1 nM, below 20 nM and below 20 nM.
Take `C[C@@H](Nc1ccc2ncc(-c3ccc(OC[C@@H]4CCN4)cc3F)n2n1)c1cccc(F)c1` [Example 43, 3-[4-[[(2S)-Azetidin-2-yl]methoxy]-2-fluoro-phenyl]-N-[(1R)-1-(3-fluorophenyl)ethyl]imidazo[1,2-b]pyridazin-6-amine]: the IC50 at ROS1 [1] was below 1 nM; at ROS1 [2] it was below 20 nM; in test [3], below 20 nM.
As to `C[C@@H](Nc1ccc2ncc(-c3ccc(OC[C@@H]4CCN4)c(F)c3)n2n1)c1cccc(F)c1` [Example 44, 3-[4-[[(2S)-Azetidin-2-yl]methoxy]-3-fluoro-phenyl]-N-[(1R)-1-(3-fluorophenyl)ethyl]imidazo[1,2-b]pyridazin-6-amine], the results for the IC50 (on ROS1 [1]; on ROS1 [2]; in test [3]) were below 1 nM, below 20 nM and below 20 nM, respectively.
